Laboratory results: patent US20220135663A1, “Method of treatment of Chronic Low Back Pain” (Pfizer Inc., priority 2019, published 2022)
Entries after “also recorded” stand apart in the source; their conditions may differ.

Tests used:
[1] = system: adult patients with chronic low back pain; test: Study 1059, Phase 3: efficacy (LBPI, RMDQ) in chronic low back pain; format: in vivo, human
Procedure: The Low Back Pain Intensity (LBPI) measure is assessed with an 11-point numeric rating scale ranging from 0 (no pain) to 10 (worst possible pain). The LBPI score can be the daily average LBPI score.
The Roland Morris Disability Questionnaire (RMDQ) is an index of how well subjects with low back pain are able to function with regard to daily activities (Roland M, Fairbank. The Roland-Morris Questionnaire and the Oswestry Disability Questionnaire. Spine. 2000; 25 (4)3115-3124). It is a low back pain-specific assessment of physical function with scores ranging from 0 to 24 (lower scores indicate better function).
(§1) Patients were also required to have documented history of previous inadequate treatment response to at least 3 different categories of agents commonly used and generally considered effective for the treatment of chronic low back pain. Patients were required to discontinue all medications for the treatment of chronic low back pain during the primary efficacy assessment period (up to Week 16).
Approximately 1800 patients were planned to be randomized initially in a 2:2:2:3 ratio to 1 of 4 following treatment groups:
1. Placebo administered SC at an 8-week interval plus placebo matching tramadol PR up to Week 16. At the Week 16 visit, patients in this group were switched in a blinded fashion in a 1:1 ratio to either tanezumab 5 mg or tanezumab 10 mg administered SC at an 8 week interval plus placebo matching tramadol PR to Week 56;
2. Tanezumab 5 mg SC administered at an 8-week interval plus placebo matching tramadol PR to Week 56;
3. Tanezumab 10 mg SC administered at an 8-week interval plus placebo matching tramadol PR to Week 56;
4. Oral tramadol PR 100-300 mg daily plus placebo administered SC at an 8-week interval to Week 56.
To achieve the initial randomization and intended re-randomization at Week 16 for placebo patients, a randomization ratio 1:1:2:2:3 for placebo→tanezumab 5 mg (at Week 16), placebo→tanezumab 10 mg (at Week 16), tanezumab 5 mg, tanezumab 10 mg, and tramadol PR was used at the beginning of the trial.
Table 2 summarizes the requirements for analgesic medication usage prior to Screening and the requirements for LBPI and Patient's Global Assessment (PGA) of CLBP. The current study enrolled patients who were more refractory to standard of care treatments for CLBP and had higher LBPI scores at Baseline.

[2] = system: adult patients with chronic low back pain; test: Study 1059: adverse events and adjudicated joint safety; format: in vivo, human; details: for incidence of discontinuations from treatment due to an adverse event / incidence of serious adverse events / overall incidence of adverse events: 56-week treatment period
Description: For subjects who are identified with a possible or probable joint event (i.e., rapidly progressive osteoarthritis, subchondral insufficiency fractures, spontaneous osteonecrosis of the knee (SPONK), primary osteonecrosis or pathological fracture) and subjects undergoing total joint replacement for any reason, all images and other source documentation may be provided to the blinded Adjudication Committee for review and adjudication of the event. The Adjudication Committee's assessment of the event may represent the final classification of the event.
as §1

[3] = system: subjects with chronic low back pain (CLBP); test: Study 1063, Phase 3 in Japan: efficacy (LBPI, RMDQ) in chronic low back pain; format: in vivo, human
Procedure: Patients received a total of seven SC injections, separated by 8 weeks (tanezumab or
Treatment groups were as follows: 1. […] Placebo for tanezumab SC and celecoxib BID.
The Intent-to-Treat (ITT) analysis set included all patients who were randomized and received at least one dose of SC study medication (either tanezumab or placebo). This analysis set was primary for all efficacy endpoints, which were analyzed according to randomization assignment, and was labeled as the ‘ITT population’.

[4] = system: subjects with chronic low back pain (CLBP); details: in vivo
Procedure: This second study (termed “Study 1063) was a randomized, double-blind, active-controlled, multicenter, parallel-group Phase 3 study in Japan to evaluate the safety and efficacy of tanezumab when administered by SC injection for up to 56 weeks in subjects with chronic low back pain (CLBP). […] Patients were also required to be experiencing some benefit from their current stable dose regimen of oral therapy of NSAID (celecoxib 200 mg/day [100 mg BID], loxoprofen 120 to 180 mg/day or meloxicam 5 to 15 mg/day) treatment, but still required additional pain relief at screening. […] Patients with a diagnosis of osteoarthritis of the knee or hip as defined by the American College of Rheumatology combined clinical and radiographic criteria or who had Kellgren Lawrence Grade ≥2 radiographic evidence of hip osteoarthritis or Kellgren Lawrence Grade ≤3 radiographic evidence of knee osteoarthritis were excluded.
Treatment groups were as follows: 1. Tanezumab 5 mg SC and placebo for celecoxib BID; 2. Tanezumab 10 mg SC and placebo for celecoxib BID; 3. Placebo for tanezumab SC and celecoxib BID.
This study was designed with a total (post-randomization) duration of 80 weeks and consisted of three periods: (1) a Screening period (up to a maximum of 37 days), (2) a Double-blind Treatment period (56 weeks), and (3) a Safety Follow-up (24 weeks) Period (FIG. 8). The Screening Period included a Washout Period (lasting 2-32 days) if required, and an Initial Pain Assessment Period (IPAP) (5 days prior to Randomization/Baseline; minimum 4 days).
The Safety analysis set included all patients who received at least one dose of SC study treatment. This analysis set was primary for all safety endpoints, which were analyzed according to treatment received, and was labeled as the ‘Safety population’. In this study, the ITT and Safety analysis sets were identical.

[5] = system: OA; details: tanezumab 2.5-5 mg combined, N = 2000; cited from earlier work
[6] = target: T1, NGF (Homo sapiens, UniProt P01138); details: cited from earlier work
[7] = target: T1, NGF; details: cell culture models; cited from earlier work
[8] = 5 mg SC every 8 weeks, listed as Tan
[9] = 10 mg SC every 8 weeks, listed as Tan
[10] = tanezumab 5-10 mg combined, N = 1008

T1 sequence (P01138 122-241): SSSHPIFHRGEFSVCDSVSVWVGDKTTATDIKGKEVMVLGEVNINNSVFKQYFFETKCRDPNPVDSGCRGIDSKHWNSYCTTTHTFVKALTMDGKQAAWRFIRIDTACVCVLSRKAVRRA

tanezumab: humanized IgG2 monoclonal antibody directed against human nerve growth factor (NGF); heavy chain SEQ ID NO: 9 or 11, light chain SEQ ID NO: 10
LBPI at week 56, LS mean difference versus tramadol ([1]; 5 mg SC every 8 weeks): −0.11
LBPI change from Baseline to Week 2, Difference vs. plc ([1]; 5 mg SC every 8 weeks): −0.37
LBPI change from Baseline to Week 2, LS Mean ([1]; 5 mg SC every 8 weeks): −1.54
LBPI change from Baseline to Week 16, Difference vs. plc ([1]; 5 mg SC every 8 weeks): No statistically significant improvement
LBPI change from Baseline to Week 16, LS Mean ([1]; 5 mg SC every 8 weeks): −2.98
Proportion of patients with ≥50% improvement in LBPI at Week 16 ([1]; 5 mg SC every 8 weeks): (43.3) %
RMDQ at week 56, LS mean difference versus tramadol ([1]; 5 mg SC every 8 weeks): −0.44
RMDQ change from Baseline to Week 16, Difference vs. plc ([1]; 5 mg SC every 8 weeks): larger improvement in RMDQ versus placebo treatment
RMDQ change from Baseline to Week 16, LS Mean ([1]; 5 mg SC every 8 weeks): −6.27
percentage of patients achieving ≥30% improvement in LBPI at week 16 ([1]; 5 mg SC every 8 weeks): 64.8%
≥30% improvement in LBPI at week 16, odds ratio versus placebo ([1]; 5 mg SC every 8 weeks): 1.45
≥30% improvement in LBPI at week 16, odds ratio versus tramadol ([1]; 5 mg SC every 8 weeks): 1.34
≥50% improvement in LBPI at Week 16, OR vs. plc ([1]; 5 mg SC every 8 weeks): 1.28
LBPI change from Baseline to Week 16, Difference vs. plc [1, 8]: −0.30
RMDQ change from Baseline to Week 16, Difference vs. plc [1, 8]: −1.32
LBPI at week 56, LS mean difference versus tramadol ([1]; 10 mg SC every 8 weeks): −0.21
LBPI change from Baseline to Week 2, Difference vs. plc ([1]; 10 mg SC every 8 weeks): onset of effect at Week 2
LBPI change from Baseline to Week 2, LS Mean ([1]; 10 mg SC every 8 weeks): −1.59
LBPI change from Baseline to Week 16, Difference vs. plc ([1]; 10 mg SC every 8 weeks): statistically significant improvement
LBPI change from Baseline to Week 16, LS Mean ([1]; 10 mg SC every 8 weeks): −3.08
Proportion of patients with ≥50% improvement in LBPI at Week 16 ([1]; 10 mg SC every 8 weeks): (46.3) %
RMDQ at week 56, LS mean difference versus tramadol ([1]; 10 mg SC every 8 weeks): −0.83
RMDQ change from Baseline to Week 16, Difference vs. plc ([1]; 10 mg SC every 8 weeks): superior improvement in physical function
RMDQ change from Baseline to Week 16, LS Mean ([1]; 10 mg SC every 8 weeks): −6.69
percentage of patients achieving ≥30% improvement in LBPI at week 16 ([1]; 10 mg SC every 8 weeks): 65.5%
≥30% improvement in LBPI at week 16, odds ratio versus placebo ([1]; 10 mg SC every 8 weeks): 1.50
≥30% improvement in LBPI at week 16, odds ratio versus tramadol ([1]; 10 mg SC every 8 weeks): 1.38
≥50% improvement in LBPI at Week 16, OR vs. plc ([1]; 10 mg SC every 8 weeks): superior responder rate
LBPI change from Baseline to Week 2, Difference vs. plc [1, 9]: −0.42
LBPI change from Baseline to Week 16, Difference vs. plc [1, 9]: −0.40
RMDQ change from Baseline to Week 16, Difference vs. plc [1, 9]: −1.74
≥50% improvement in LBPI at Week 16, OR vs. plc [1, 9]: 1.45
incidence of adverse events of potential sympathetic dysfunction ([2]; 5 mg): 5.9%
incidence of carpal tunnel syndrome ([2]; 5 mg): 1.0%
incidence of hypoaesthesia ([2]; 5 mg): 3.0%
incidence of composite joint safety endpoint ([2]; 5 mg SC every 8 weeks): 1.0%
observation-time adjusted rate of composite joint safety endpoint ([2]; 5 mg SC every 8 weeks): 10.0 events/1000 patient-years
patients adjudicated to normal progression of OA, number ([2]; 5 mg SC every 8 weeks): 1 patient
patients with joint safety event adjudicated to RPOA Type 1 ([2]; 5 mg SC every 8 weeks): 1.0%
patients with joint safety event adjudicated to RPOA Type 1, number ([2]; 5 mg SC every 8 weeks): 5 patients
incidence of discontinuations from treatment due to an adverse event ([2]; 5 mg): 6.7%
incidence of serious adverse events ([2]; 5 mg): 2.2%
overall incidence of adverse events ([2]; 5 mg): 58.3%
incidence of adverse events of potential sympathetic dysfunction ([2]; 10 mg): 6.4%
incidence of carpal tunnel syndrome ([2]; 10 mg): 1.6%
incidence of hypoaesthesia ([2]; 10 mg): 3.8%
incidence of composite joint safety endpoint ([2]; 10 mg SC every 8 weeks): 2.6%
observation-time adjusted rate of composite joint safety endpoint ([2]; 10 mg SC every 8 weeks): 25.7 events/1000 patient-years
patients adjudicated to normal progression of OA, number ([2]; 10 mg SC every 8 weeks): 1 patient
patients with joint safety event adjudicated to RPOA Type 1 ([2]; 10 mg SC every 8 weeks): 1.4%
patients with joint safety event adjudicated to RPOA Type 1, number ([2]; 10 mg SC every 8 weeks): 7 patients
patients with joint safety events adjudicated to RPOA Type 2 ([2]; 10 mg SC every 8 weeks): 0.4%
patients with joint safety events adjudicated to RPOA Type 2, number ([2]; 10 mg SC every 8 weeks): Two
patients with subchondral insufficiency fracture ([2]; 10 mg SC every 8 weeks): 0.8%
patients with subchondral insufficiency fracture, number ([2]; 10 mg SC every 8 weeks): Four and four
patients with total joint replacement during study observation period, number ([2]; 10 mg SC every 8 weeks): 7 patients
incidence of discontinuations from treatment due to an adverse event ([2]; 10 mg): 7.4%
incidence of serious adverse events ([2]; 10 mg): 4.6%
overall incidence of adverse events ([2]; 10 mg): 63.7%
Primary Osteonecrosis, n (%) [2, 10]: 0 n (%)
RPOA Type 1 [2, 10]: (1.2%)
RPOA Type 2 [2, 10]: (0.2%)
Subchondral Insufficiency Fracture [2, 10]: (0.4%)
patients with joint safety event requiring adjudication ([2]; tanezumab-treated patients (5 and 10 mg combined), 80-week observation period): 2.6%
Proportion of Patients with ≥50% Improvement in LBPI at Week 16 (Mixed BOCF/LOCF) ([3]; 5 mg SC every 8 weeks): (51.1%)
Proportion with ≥50% Improvement in LBPI at Week 16, Difference vs. celecoxib ([3]; 5 mg SC every 8 weeks): 18.5
Change from Baseline to Week 16 in LBPI (Multiple Imputation), LS Mean ([3]; 5 mg SC every 8 weeks, ITT): −2.91
Change from Baseline to Week 16 in RMDQ (Multiple Imputation), LS Mean ([3]; 5 mg SC every 8 weeks, ITT): −3.85
Change from Baseline to Week 16 in RMDQ, LS Mean Difference vs. celecoxib ([3]; 5 mg SC every 8 weeks, ITT): −0.01
treatment differences for change from baseline to Week 56 for LBPI and RMDQ ([3]; 5 mg group relative to both the tanezumab 10 mg and the celecoxib groups): numerically larger
Proportion of Patients with ≥50% Improvement in LBPI at Week 16 (Mixed BOCF/LOCF) ([3]; 10 mg SC every 8 weeks): (35.5%)
Proportion with ≥50% Improvement in LBPI at Week 16, Difference vs. celecoxib ([3]; 10 mg SC every 8 weeks): 2.9
Change from Baseline to Week 16 in LBPI (Multiple Imputation), LS Mean ([3]; 10 mg SC every 8 weeks, ITT): −2.51
Change from Baseline to Week 16 in RMDQ (Multiple Imputation), LS Mean ([3]; 10 mg SC every 8 weeks, ITT): −4.38
severity of abnormal peripheral sensation adverse events [4]: mild in severity
severity of potential sympathetic dysfunction events [4]: mild in severity
Primary Osteonecrosis [5]: (0.1%)
RPOA [5]: (4.8%)
RPOA Type 1 [5]: (3.9%)
RPOA Type 2 [5]: (0.9%)
Subchondral Insufficiency Fracture [5]: (0.7%)
binding to NGF [6]: high specificity and affinity; also recorded: high affinity and specificity
blocking of the activity of NGF [7]: blocks the activity of NGF effectively
